Reference: paper PMC5779714, “Metallochaperone UreG serves as a new target for design of urease inhibitor: A novel strategy for development of antimicrobials” (PLoS Biology, 2018)
Values joined by “and” are separate entries in the source; they are usually repeats but may differ in a detail not shown here. Equal values may be shown once. Read-outs that look alike come from different tables or passages of the source.

What was measured:
H. pylori urease = H. pylori urease (Helicobacter pylori, UniProt P14916+P69996); test: cell-based; type: cell-based; settings: read-out: inhibition of urease activity in H. pylori cells
H. pylori = test: Growth of H. pylori in neutral and acidic brucella broth (OD600); type: cell-based
UreG [1] = biological target: T1, UreG (Helicobacter pylori, UniProt Q09066); test: Fluorescence-quenching titration of UreG (Kd); type: binding, H. pylori
Experimental: (§1) Using the relation between the emission intensity at 310 nm and molecule-UreG–bound species, as well as one site-binding model, the Kd values were calculated by a logistic regression model referring to a previous report. […] All fluorescence readings were corrected for the dilution effect.

UreGΔNKXD = UreGΔNKXD (Helicobacter pylori, UniProt Q09066, D148A/K146A/N145A); test: Fluorescence-quenching titration of mutant UreGΔNKXD; type: binding, H. pylori
Experimental: To further confirm the interface between UreG and small molecules generated from computational models, we then constructed an UreG mutant (UreGΔNKXD) by replacing selected residues (N145, K146, D148) with Ala to disrupt G4 motif, which abolished GTP binding of UreG (S17 Fig).
as §1

UreG [2] = biological target: T1, UreG; test: Nickel binding of UreG (UV absorption at 337 nm) in presence of compounds; design: species or system H. pylori; settings: for percentage of Ni(II)-bound UreG: UreG 5 μM
Experimental: We further investigated whether binding of cmpd4 or cmpd8 to the guanine nucleotide binding pocket perturbed the Ni(II) coordination to the protein. Considering that coordination of Ni(II) to UreG results in a (Cys)→Ni(II) LMCT band centered at about 337 nm, we monitored the UV absorption of UreG samples (5 μM) at 337 nm upon titration of nickel with or without the supplement of cmpd4 or cmpd8. As shown in S19 Fig, cmpd4 at a ratio of [cmpd4]/[UreG] of 5 and 10 reduced the percentages of Ni(II)-bound UreG to ca. 75% and 30%, respectively, and a similar phenomenon was also observed for cmpd8 (S19 Fig), indicative of the disruption of nickel binding property of UreG through targeting nucleotide binding site.
Supplementary file pbio.2003887.s021.png: S19 Fig Effect of cmpd4 and cmpd8 on nickel binding property of UreG. UreG (5 μM) in HEPES buffer (5 μM GTP, 1 mM MgSO4) was titrated with NiSO4 in the presence of cmpd4 or cmpd8 at various concentrations. Titration of nickel ion into UreG samples led to the increasing of absorption at 337 nm, the highest of which was set as 100% for the percentage of Ni-bound UreG. The supplement of cmpd4 and cmpd8 reduced the percentage of Ni-bound UreG. […] (PNG) Click here for additional data file.

[3] = system: AGS cells exposed to H. pylori; test: Cell infection model: AGS cells exposed to H. pylori pre-cultured with inhibitors; type: cell-based, human; settings: for Ammonia in medium (mM) / Ammonia in medium: H. pylori pre-cultured with 10 μM inhibitor, urea 10 mM, 24 h, Hp alone ca. 2.5 mM

T1 sequence (Q09066 whole entry): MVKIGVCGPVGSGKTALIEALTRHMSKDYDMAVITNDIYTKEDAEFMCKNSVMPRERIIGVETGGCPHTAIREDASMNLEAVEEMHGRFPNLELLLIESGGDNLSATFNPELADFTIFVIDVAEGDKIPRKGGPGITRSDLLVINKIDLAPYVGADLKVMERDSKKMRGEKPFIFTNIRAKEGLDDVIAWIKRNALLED
Chain of UreGΔNKXD (Q09066 whole entry N145A/K146A/D148A): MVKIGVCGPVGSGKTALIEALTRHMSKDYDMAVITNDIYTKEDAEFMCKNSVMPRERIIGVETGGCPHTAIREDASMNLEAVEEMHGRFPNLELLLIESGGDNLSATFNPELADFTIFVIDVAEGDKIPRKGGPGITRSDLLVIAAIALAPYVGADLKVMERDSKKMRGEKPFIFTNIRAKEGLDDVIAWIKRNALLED
Chain of H. pylori urease (P14916 whole entry, looked up): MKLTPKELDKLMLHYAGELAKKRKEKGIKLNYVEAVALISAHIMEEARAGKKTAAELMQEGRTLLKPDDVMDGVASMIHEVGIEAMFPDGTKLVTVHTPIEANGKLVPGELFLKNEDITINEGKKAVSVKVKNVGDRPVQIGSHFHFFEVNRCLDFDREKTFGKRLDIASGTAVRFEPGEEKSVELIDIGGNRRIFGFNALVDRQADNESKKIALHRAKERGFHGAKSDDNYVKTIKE
Chain of H. pylori urease (P69996 whole entry, looked up): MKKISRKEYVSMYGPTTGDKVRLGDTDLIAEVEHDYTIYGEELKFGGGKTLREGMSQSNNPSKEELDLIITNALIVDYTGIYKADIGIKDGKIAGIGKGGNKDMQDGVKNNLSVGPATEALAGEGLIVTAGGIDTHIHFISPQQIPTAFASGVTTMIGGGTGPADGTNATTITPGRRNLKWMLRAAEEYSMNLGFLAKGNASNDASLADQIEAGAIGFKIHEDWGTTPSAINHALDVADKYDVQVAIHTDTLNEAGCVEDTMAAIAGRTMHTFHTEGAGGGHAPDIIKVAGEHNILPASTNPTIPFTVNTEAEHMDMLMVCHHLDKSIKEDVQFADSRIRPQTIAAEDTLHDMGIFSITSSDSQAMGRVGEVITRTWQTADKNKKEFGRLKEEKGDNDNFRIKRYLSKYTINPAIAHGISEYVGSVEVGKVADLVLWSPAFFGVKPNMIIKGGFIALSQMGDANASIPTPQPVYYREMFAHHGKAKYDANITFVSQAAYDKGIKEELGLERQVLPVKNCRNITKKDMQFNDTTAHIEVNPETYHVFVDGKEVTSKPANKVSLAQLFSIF

O=C(Cn1c2ccccc2c(=O)c2ccccc21)N/N=C/c1cc([N+](=O)[O-])ccc1N1CCCCCC1 [cmpd8]
inhibition at 20 µM (H. pylori urease; 20 μM compound in cultured medium): ~90%
OD600(pH5) (H. pylori; pH 5): 0.47
OD600 (pH7) (H. pylori; pH 7): 0.116
Kd (UreG [1]): 7.5 ± 3.6 µM
fluorescence intensity (a.u.) (UreG [1]; log(ligand[μM]) 0): 2868.33 a.u.
fluorescence intensity (a.u.) (UreG [1]; log(ligand[μM]) 0.30103): 2606 a.u.
fluorescence intensity (a.u.) (UreG [1]; log(ligand[μM]) 0.60206): 2272 a.u.
fluorescence intensity (a.u.) (UreG [1]; log(ligand[μM]) 0.90309): 1853.67 a.u.
fluorescence intensity (a.u.) (UreG [1]; log(ligand[μM]) 1.20412): 1359.33 a.u.
fluorescence intensity (a.u.) (UreG [1]; log(ligand[μM]) 1.50515): 767.233 a.u.
fluorescence intensity (a.u.) (UreG [1]; log(ligand[μM]) 1.68124): 595.5 a.u.
fluorescence intensity (a.u.) (UreG [1]; log(ligand[μM]) 1.80618): 360.267 a.u.
fluorescence intensity (a.u.) (UreG [1]; log(ligand[μM]) -0.30103): 3140.33 a.u.
fluorescence intensity (a.u.) (UreG [1]; log(ligand[μM]) -0.60206): 3427 a.u.
fluorescence intensity (a.u.) (UreG [1]; log(ligand[μM]) -1.30103): 3670 a.u.
Kd (UreGΔNKXD): 33.4 µM
fluorescence intensity (a.u.) (UreGΔNKXD; log(ligand[μM]) 0): 2422.67 a.u.
fluorescence intensity (a.u.) (UreGΔNKXD; log(ligand[μM]) 0.30103): 2357.67 a.u.
fluorescence intensity (a.u.) (UreGΔNKXD; log(ligand[μM]) 0.60206): 2253.67 a.u.
fluorescence intensity (a.u.) (UreGΔNKXD; log(ligand[μM]) 0.90309): 2017.33 a.u.
fluorescence intensity (a.u.) (UreGΔNKXD; log(ligand[μM]) 1.20412): 1677.67 a.u.
fluorescence intensity (a.u.) (UreGΔNKXD; log(ligand[μM]) 1.50515): 1189.33 a.u.
fluorescence intensity (a.u.) (UreGΔNKXD; log(ligand[μM]) 1.80618): 685.167 a.u.
fluorescence intensity (a.u.) (UreGΔNKXD; log(ligand[μM]) 2.10721): 316.133 a.u.
fluorescence intensity (a.u.) (UreGΔNKXD; log(ligand[μM]) -0.30103): 2519 a.u.
fluorescence intensity (a.u.) (UreGΔNKXD; log(ligand[μM]) -1.30103): 2677 a.u.
absorption at 337 nm (UreG [2]; [compound]/[UreG] 5, Ni 0 μM): 2.14E-04
absorption at 337 nm (UreG [2]; [compound]/[UreG] 5, Ni 1 μM): 0.00481
absorption at 337 nm (UreG [2]; [compound]/[UreG] 5, Ni 2 μM): 0.0064
absorption at 337 nm (UreG [2]; [compound]/[UreG] 5, Ni 3 μM): 0.00838
absorption at 337 nm (UreG [2]; [compound]/[UreG] 5, Ni 4 μM): 0.01641
absorption at 337 nm (UreG [2]; [compound]/[UreG] 5, Ni 5 μM): 0.0186
absorption at 337 nm (UreG [2]; [compound]/[UreG] 5, Ni 6 μM): 0.01908
absorption at 337 nm (UreG [2]; [compound]/[UreG] 5, Ni 7 μM): 0.02094
absorption at 337 nm (UreG [2]; [compound]/[UreG] 5, Ni 8 μM): 0.0213
absorption at 337 nm (UreG [2]; [compound]/[UreG] 10, Ni 0 μM): 0.00131
absorption at 337 nm (UreG [2]; [compound]/[UreG] 10, Ni 1 μM): 0.00222
absorption at 337 nm (UreG [2]; [compound]/[UreG] 10, Ni 2 μM): 0.00217
absorption at 337 nm (UreG [2]; [compound]/[UreG] 10, Ni 3 μM): 0.00973
absorption at 337 nm (UreG [2]; [compound]/[UreG] 10, Ni 4 μM): 0.01047
absorption at 337 nm (UreG [2]; [compound]/[UreG] 10, Ni 5 μM): 0.01403
absorption at 337 nm (UreG [2]; [compound]/[UreG] 10, Ni 6 μM): 0.0146
absorption at 337 nm (UreG [2]; [compound]/[UreG] 10, Ni 7 μM): 0.01179
absorption at 337 nm (UreG [2]; [compound]/[UreG] 10, Ni 8 μM): 0.01166
Normalized cell survival (%) [3]: 81.1% ± 11.3% and 81.0811%
Ammonia in medium (mM) [3]: around 1.1 mM
Ammonia in medium ([3]; listed as cmp8): 1.209 mM

Cc1cccc(N2CCN(C(=O)c3cc(S(=O)(=O)N(C)C)ccc3N3CCCC3)CC2)c1C [cmpd4]
inhibition at 20 µM (H. pylori urease): ~60%
OD600(pH5) (H. pylori; acidic brucella broth pH 5.0, 24 h, control 0.93): 0.46
OD600(pH5) (H. pylori; acidic brucella broth pH 5.0, 24 h, control 0.93, listed as cmp4): 0.464
OD600 (pH7) (H. pylori; neutral medium, 24 h, control 0.18): 0.141
Kd (UreG [1]): 10.6 ± 2.3 µM
fluorescence intensity (a.u.) (UreG [1]; log(ligand[μM]) 0): 2682 a.u.
fluorescence intensity (a.u.) (UreG [1]; log(ligand[μM]) 0.30103): 2455.33 a.u.
fluorescence intensity (a.u.) (UreG [1]; log(ligand[μM]) 0.60206): 2056.33 a.u.
fluorescence intensity (a.u.) (UreG [1]; log(ligand[μM]) 0.90309): 1714.67 a.u.
fluorescence intensity (a.u.) (UreG [1]; log(ligand[μM]) 1.20412): 1176.67 a.u.
fluorescence intensity (a.u.) (UreG [1]; log(ligand[μM]) 1.50515): 615.233 a.u.
fluorescence intensity (a.u.) (UreG [1]; log(ligand[μM]) 1.80618): 297.433 a.u.
fluorescence intensity (a.u.) (UreG [1]; log(ligand[μM]) -0.30103): 2867.67 a.u.
fluorescence intensity (a.u.) (UreG [1]; log(ligand[μM]) -0.60206): 2962.67 a.u.
fluorescence intensity (a.u.) (UreG [1]; log(ligand[μM]) -1.30103): 3018 a.u.
Kd (UreGΔNKXD): 34.7 µM
fluorescence intensity (a.u.) (UreGΔNKXD; log(ligand[μM]) 0): 2206 a.u.
fluorescence intensity (a.u.) (UreGΔNKXD; log(ligand[μM]) 0.30103): 2092 a.u.
fluorescence intensity (a.u.) (UreGΔNKXD; log(ligand[μM]) 0.60206): 1907 a.u.
fluorescence intensity (a.u.) (UreGΔNKXD; log(ligand[μM]) 0.90309): 1710.67 a.u.
fluorescence intensity (a.u.) (UreGΔNKXD; log(ligand[μM]) 1.20412): 1454.33 a.u.
fluorescence intensity (a.u.) (UreGΔNKXD; log(ligand[μM]) 1.50515): 989.433 a.u.
fluorescence intensity (a.u.) (UreGΔNKXD; log(ligand[μM]) 1.80618): 540.3 a.u.
fluorescence intensity (a.u.) (UreGΔNKXD; log(ligand[μM]) 2.10721): 237.1 a.u.
fluorescence intensity (a.u.) (UreGΔNKXD; log(ligand[μM]) -0.30103): 2278 a.u.
fluorescence intensity (a.u.) (UreGΔNKXD; log(ligand[μM]) -1.30103): 2063.67 a.u.
percentage of Ni(II)-bound UreG (UreG [2]; [cmpd4]/[UreG] of 5): ca. 75%
percentage of Ni(II)-bound UreG (UreG [2]; [cmpd4]/[UreG] of 10): ~30%
absorption at 337 nm (UreG [2]; [compound]/[UreG] 5, Ni 0 μM): 5.14E-05
absorption at 337 nm (UreG [2]; [compound]/[UreG] 5, Ni 1 μM): 0.00539
absorption at 337 nm (UreG [2]; [compound]/[UreG] 5, Ni 2 μM): 0.00942
absorption at 337 nm (UreG [2]; [compound]/[UreG] 5, Ni 3 μM): 0.01515
absorption at 337 nm (UreG [2]; [compound]/[UreG] 5, Ni 4 μM): 0.01614
absorption at 337 nm (UreG [2]; [compound]/[UreG] 5, Ni 5 μM): 0.01885
absorption at 337 nm (UreG [2]; [compound]/[UreG] 5, Ni 6 μM): 0.02176
absorption at 337 nm (UreG [2]; [compound]/[UreG] 5, Ni 7 μM): 0.02335
absorption at 337 nm (UreG [2]; [compound]/[UreG] 5, Ni 8 μM): 0.02298
absorption at 337 nm (UreG [2]; [compound]/[UreG] 10, Ni 0 μM): -8.22E-04
absorption at 337 nm (UreG [2]; [compound]/[UreG] 10, Ni 1 μM): 0.00376
absorption at 337 nm (UreG [2]; [compound]/[UreG] 10, Ni 2 μM): 0.00766
absorption at 337 nm (UreG [2]; [compound]/[UreG] 10, Ni 3 μM): 0.00856
absorption at 337 nm (UreG [2]; [compound]/[UreG] 10, Ni 4 μM): 0.00995
absorption at 337 nm (UreG [2]; [compound]/[UreG] 10, Ni 5 μM): 0.01042
absorption at 337 nm (UreG [2]; [compound]/[UreG] 10, Ni 6 μM): 0.01062
absorption at 337 nm (UreG [2]; [compound]/[UreG] 10, Ni 7 μM): 0.01073
absorption at 337 nm (UreG [2]; [compound]/[UreG] 10, Ni 8 μM): 0.00864
Normalized cell survival (%) ([3]; H. pylori pre-cultured with 10 μM inhibitor 24 h, MOI 20, 24 h infection, Hp alone 28.8%): 70.3% ± 11.3%
Normalized cell survival (%) ([3]; H. pylori pre-cultured with 10 μM inhibitor 24 h, MOI 20, 24 h infection, Hp alone 28.8%, listed as cmp4): 70.2703%
Ammonia in medium (mM) [3]: around 1.1 mM
Ammonia in medium ([3]; listed as cmp4): 1.1872 mM
